Data from patent US20260048155A1, “BIOCOMPATIBLE PARAHYDROGEN HYPERPOLARIZED SOLUTIONS BY PRECIPITATION AND RE-DISSOLUTION” (North Carolina State University, priority 2022, published 2026).

Columns and labels:
Format in all cases: physicochemical
[1] = Re-dissolution (Re-D) SABRE: precipitation with ethyl acetate, re-dissolution in water, phase separation at different magnetic fields
Description: To investigate the precipitation and re-dissolution of HP [1-^13C]pyruvate, a phase separation approach was applied, FIGS. 5A-5B. To this end, the fact that water and EtAc are immiscible was exploited to modify the setup and procedure accordingly. In this approach, the precipitation was performed in the same NMR tube where hyperpolarization took place. 400 μL EtAc were added quickly to the sample consisting of 100 μL of 30 mM HP [1-^13C]pyruvate, right after removing this sample from the 0.4 μT field and releasing the pressure (≈3-4 s). To mix the solution after EtAc addition, further p-H2 bubbling was used at a low flow rate (˜5-10 scc/m, ambient pressure), FIGS. 5A-5B. For re-dissolution, 300 μL water were added directly to the NMR tube with the precipitate-containing solution, and again, gas flow was used to mix and dissolve the pyruvate microcrystals. After mixing the solutions, most of the aqueous phase rapidly separated from the organic phase (≈1 s). Typical precipitation time was tprec≈2 s and water addition time twater≈6 s, where twater consisted of 1 s to add water, plus 4 s to bubble gas, and 1 s to settle the solution, FIGS. 5A-5B (see FIG. 17 for more information). […] Using this protocol, the obtained two-phase samples visibly contained a major fraction of the catalyst in the organic phase (which remained yellowish and turned reddish after exposure to atmosphere, FIG. 15), whereas a clear aqueous solution of total volume of ≈335±10 μL was obtained (as detailed below approximately half of the CH3OH remained in the aqueous phase), FIGS. 14A-14B. The total volumes of the investigated mixtures containing the precipitate were approximately 500 μL (3.9 cm fill height in the NMR tube), and after the addition of water the total fluid volume was ≈800 μL (≈6 cm fill height). During the phase mixing, parts of the sample were lifted by approximately 5 cm by the ascending p-H2 gas bubbles. The sample height in the NMR tube was the decisive factor affecting the choice of solvent volumes to minimize the mixtures from leaving the 1.4 T field of the benchtop NMR spectrometer (approximately 10 cm along the sample tube) as much as possible. […] These limitations are clear shortcomings of the current experimental design and can be remedied in the future with purpose-built hyperpolarization equipment.
This separation approach was investigated at 4 different magnetic fields: (i) Earth's field; (ii) 10 mT; (iii) 0.3 T; and (iv) 1.4 T, FIGS. 6A-6B. More details on the experiment setups are reported in the SI. Re-D SABRE was performed at (i)-(iv), and the samples were then rapidly transferred to the benchtop 1.4 T NMR, such that the aqueous phase was approximately centered in the radiofrequency coil. In case (iv), for which no transfer was needed, a ≈5-s delay was added to the end of the protocol for consistency with the time needed to transfer the samples in (i-iii).
The detection and quantification of hyperpolarization took place at 1.4 T in all cases.
A more rigorous phase mixing protocol was tested, where the bubbling tube was moved up and down rapidly three times for phase mixing during the twater≈6 s mixing time. […] Considering the final volume of the aqueous phase of 335±10 μL and the measured pyruvate concentration of 5.8±0.8 mM (in the diluted Re-D SABRE sample), the detected ^13C signals corresponded to a nuclear polarization of P13C=9±1% or 8±1%, i.e., ε13C of ≈75,000 at 1.4 T, respectively, N=2 samples, FIGS. 7A-8B. […]

[2] = Precipitation without water addition: 13C polarization of residual dissolved pyruvate in organic phase; conditions: for P13C in precipitated sample, no water added / 13C polarization in precipitated sample, no water added: residual dissolved pyruvate in EtAc/CH3OH
Description: (§1) To investigate the impact of precipitate relaxation in variable magnetic fields during the dissolution process, the Re-D SABRE experiment was repeated, omitting the addition of water after precipitation (i.e., the decay of ^13C HP signal in the dissolved phase of the precipitated samples was measured). […] For (iii), P13C was still much lower compared to the sample that rested at the 1.4 T magnet (setup iv), i.e., P13C=0.08±0.02% and P13C=3.4±0.9%, respectively—this signal is entirely derived from the remaining dissolved pyruvate in solution (2.3±0.6 mM in the 500 μL sample of EtAc and CH3OH, FIG. 17) not from the precipitated micro-crystalline phase. […] This observation is important because it means the Re-D SABRE process can be successfully performed at storage fields as low as 0.3 T. The rapid ^13C T1 of HP [1-^13C]pyruvate in the EtAc fraction at Earth's field, estimated to be <1.3 s, may be caused by the high catalyst: substrate ratio in the EtAc.
Description of the magnets used in the precipitation and relaxation study: The precipitation and phase separation approach was investigated at 4 different magnetic fields: (i) Earth's field; (ii) 10 mT; (iii) 0.3 T; and (iv) 1.4 T. For (i), the samples were positioned in a plastic holder at a defined position in the laboratory at which a magnetic field of ≈40 μT was measured. For (ii), a modified setup of permanent magnets creating a 10 mT magnetic field over a volume of ≈20×10×10 cm^3 was employed. For (iii), a hollow cylindrical magnet (K&J Magnetics, Inc., P/N RY04Y0) was used with a length of 5.1 cm and an inner bore of approximately 6.4 mm diameter in which the NMR tube was positioned. For (iv), the NMR benchtop spectrometer was used, which approximately provides the constant 1.4 T field up to 10 cm above the magnet center.

[3] = Lifetime (13C T1) of polarization in precipitated and aqueous samples; conditions: for T1 in the aqueous phase after Re-D SABRE: N=2
Description: as §1
HP signals from the sample before or after re-dissolution were measured as a function of an additional delay td (ranging from 0 to 23 s; t=tprec+td), during which P13C was allowed to decay. At the end of td, the signal was detected either immediately (green circles, FIG. 6D, sampling the decay rate of the residual dissolved-phase pyruvate) or after the dissolution with D2O (squares, FIG. 6D, sampling the decay rate of the entire pyruvate (precipitated and dissolved) pool). Assuming a mono-exponential decay, the apparent ^13C T1 was 7.0±0.4 s or 5.3±0.2 s, respectively. […] In sharp contrast, T1 values in the aqueous phase measured after the Re-D SABRE process were 41.6±0.3 s in H2O and 102±1.3 s in D2O, FIG. 6E, using a series of pulse-detect NMR experiments with low flip angle of 9° (N=2).

Compound: CC(=O)[13C](=O)O [[1-^13C]pyruvate]
- ε13C after Re-D SABRE ([1]; aqueous phase, at 1.4 T): ≈ 75,000
- P13C after Re-D SABRE ([1]; precipitation and re-dissolution at 0.3 T, N=2, aqueous phase): 4.0±0.8%
- P13C after Re-D SABRE ([1]; precipitation and re-dissolution at 1.4 T, N=3, aqueous phase): 3.6±0.6%
- P13C after Re-D SABRE ([1]; precipitation and re-dissolution at 10 mT, aqueous phase, detected at 1.4 T): 0.05±0.02%
- HP 13C signal after Re-D SABRE ([1]; precipitation and re-dissolution at Earth's field, detected at 1.4 T): No HP ^13C signal was observed
- P13C in precipitated sample, no water added ([2]; 0.3 T (iii)): 0.08±0.02%
- P13C in precipitated sample, no water added ([2]; 1.4 T (iv)): 3.4±0.9%
- 13C polarization in precipitated sample, no water added ([2]; 10 mT (ii)): no measurable ^13C polarization was observed
- 13C polarization in precipitated sample, no water added ([2]; Earth's field (i)): no measurable ^13C polarization was observed
- P13C in (iii) 0.3 T lower than in (iv) 1.4 T ([2]; dissolved phase in EtAc fraction): ≈ 40 times
- T1 in the aqueous phase after Re-D SABRE ([3]; D2O, 1.4 T): 102 ± 1.3 s
- 13C T1 in the EtAc fraction ([3]; Earth's field, estimated): < 1.3 s
- T1 in the aqueous phase after Re-D SABRE ([3]; H2O, 1.4 T): 41.6 ± 0.3 s
- apparent 13C T1, entire pyruvate (precipitated and dissolved) pool ([3]; precipitated sample, 1.4 T, detected after dissolution with D2O): 5.3 ± 0.2 s
- apparent 13C T1, residual dissolved-phase pyruvate ([3]; precipitated sample, 1.4 T, detected immediately, mono-exponential): 7.0 ± 0.4 s
